According to patent US9056119B2, “VEGF production promoter” (Kao Corporation, priority 2010, dated 2015):

Tested on: VEGF
Assay: Effect on production of VEGF: amount of VEGF secreted in culture supernatant, determined by ELISA
Format: cell-based
Conditions: normal human newborn preputial epidermal keratinocytes (NHEK), 16 hours, control defined as 1
Method: Normal human newborn preputial epidermal keratinocytes (Kurabo Industries Ltd.: frozen NHEK (F) Lot. No. 061130-902) were used in a test. The cells were inoculated into three six-well microplates at 2×10^4 cells/mL per well. Culture was carried out in Defined keratinocyte-SFM (SFM medium, Gibco) under conditions of 2% CO2 and 37° C. After the cell density reached 50 to 60% confluence, the medium was exchanged for additive-free Defined keratinocyte-SFM medium (SFM (−) medium). The cells were conditioned to the SFM (−) medium for 24 hours, and the medium was then exchanged for an SFM (−) medium supplemented with an arbitrary concentration of the triterpenoid saponin obtained in Example 1. Then, the test was started.
It should be noted that a compound-free SFM (−) medium was used as a negative control. 16 hours after the start of the test, the media were collected, and the amounts of VEGF secreted in the supernatants of the cultures were determined using an ELISA kit (R&D Systems). The amount of VEGF produced in the control was defined as 1, and relative values to the control value were used for evaluation.

`CC(=O)O[C@H]([C@H]1C[C@@H](C)[C@H]2[C@@](O)(O1)[C@H](O)[C@@]1(C)C3=CCC4C(C)(C)[C@@H](O[C@@H]5OC[C@@H](O)[C@@H](O)C5O)CC[C@@]45C[C@@]35CC[C@]21C)C(C)(C)O` (stereo partly drawn) [Compound 1, 7,8-Didehydro-24-O-acetylhydroshengmanol-3-O-β-xyloside] was tested, and the “Relative value of secreted VEGF amount” value (20 μg/mL) was 2.19, the “Relative value of secreted VEGF amount” value (100 μg/mL) was 3.65 and the “Relative value of secreted VEGF amount” value (200 μg/mL) was 5.69.
With `C[C@@H]1C[C@H]2O[C@]3(O[C@H]2C(C)(C)O)[C@H]1[C@@]1(C)CC[C@@]24C[C@@]25CC[C@H](O[C@@H]2OC[C@@H](O)[C@@H](O)C2O)C(C)(C)C5CC=C4[C@]1(C)[C@H]3O` (stereo partly drawn) [Compound 2, 24-epi-7,8-Didehydrocimigenol-3-xyloside] the “Relative value of secreted VEGF amount” value (20 μg/mL) was 2.32 and the “Relative value of secreted VEGF amount” value (100 μg/mL) was 0.40.
In the case of `C[C@H](CC(=O)C1OC1(C)C)[C@H]1C(=O)C[C@@]2(C)C3=CCC4C(C)(C)[C@@H](O[C@@H]5OC[C@@H](O)[C@@H](O)C5O)CC[C@@]45C[C@@]35C(O)C[C@]12C` (some centres unmarked) [Compound 3, Cimicifugoside H-1], the “Relative value of secreted VEGF amount” value (20 μg/mL) is reported as 1.19, the “Relative value of secreted VEGF amount” value (100 μg/mL) is reported as 2.50 and the “Relative value of secreted VEGF amount” value (200 μg/mL) is reported as 2.82.
